Results from ChEMBL document CHEMBL1201862, “PubChem BioAssay data set” (2004).
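Tested at 5 concentrations; 48 h exposure; 96-well plates; endpoints linearly interpolated, else capped at highest concentration. GI50: concentration for 50% inhibition of growth.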 Activity calls are given as the source filed them. No stated cut-off is given here; in the data, active = GI50 up to about 1.1 µM and inactive = higher.

How the values were obtained:
Experiment in all cases: NCI anticancer screen, dose series, 48 h
786-0 = test system: 786-0
A498 = test system: A498
A549 = test system: A549
ACHN = test system: ACHN
BT-549 = test system: BT-549
CAKI-1 = test system: CAKI-1
CCRF-CEM = test system: CCRF-CEM
COLO 205 = test system: COLO 205
DU-145 = test system: DU-145
EKVX = test system: EKVX
HCC 2998 = test system: HCC 2998
HCT-116 = test system: HCT-116
HCT-15 = test system: HCT-15
HL-60 = test system: HL-60
HOP-62 = test system: HOP-62
HOP-92 = test system: HOP-92
HT-29 = test system: HT-29
Hs-578T = test system: Hs-578T
IGROV-1 = test system: IGROV-1
K562 = test system: K562
KM12 = test system: KM12
LOX IMVI = test system: LOX IMVI
M14 = test system: M14
MDA-MB-231 = test system: MDA-MB-231
MDA-MB-435 = test system: MDA-MB-435
MDA-N = test system: MDA-N
MOLT-4 = test system: MOLT-4
Malme-3M = test system: Malme-3M
NCI-H226 = test system: NCI-H226
NCI-H23 = test system: NCI-H23
NCI-H460 = test system: NCI-H460
NCI/ADR-RES = test system: NCI/ADR-RES
OVCAR-3 = test system: OVCAR-3
OVCAR-4 = test system: OVCAR-4
OVCAR-5 = test system: OVCAR-5
OVCAR-8 = test system: OVCAR-8
RPMI-8226 = test system: RPMI-8226
RXF 393 = test system: RXF 393
SF-268 = test system: SF-268
SF-539 = test system: SF-539
SK-MEL-28 = test system: SK-MEL-28
SK-MEL-2 = test system: SK-MEL-2
SK-MEL-5 = test system: SK-MEL-5
SK-OV-3 = test system: SK-OV-3
SN12C = test system: SN12C
SNB-19 = test system: SNB-19
SNB-75 = test system: SNB-75
SR = test system: SR
SW-620 = test system: SW-620
T47D = test system: T47D
U-251 = test system: U-251
UACC-257 = test system: UACC-257
UACC-62 = test system: UACC-62
MCF7 = test system: MCF7
NCI-H522 = test system: NCI-H522
PC-3 = test system: PC-3
SF-295 = test system: SF-295
TK-10 = test system: TK-10
UO-31 = test system: UO-31

N=c1oc2ccccc2cc1C(=O)Nc1ccccn1
GI50 (786-0): 37.8 µM (inactive)
GI50 (A498): > 100 µM (inactive)
GI50 (A549): > 100 µM (inactive)
GI50 (ACHN): 53.1 µM (inactive)
GI50 (BT-549): > 100 µM (inactive)
GI50 (CAKI-1): 45.4 µM (inactive)
GI50 (CCRF-CEM): 44.8 µM (inactive)
GI50 (COLO 205): > 100 µM (inactive)
GI50 (DU-145): > 100 µM (inactive)
GI50 (EKVX): 33.2 µM (inactive)
GI50 (HCC 2998): > 100 µM (inactive)
GI50 (HCT-116): 51.9 µM (inactive)
GI50 (HCT-15): 75 µM
GI50 (HL-60): > 100 µM (inactive)
GI50 (HOP-62): 63 µM (inactive)
GI50 (HOP-92): > 100 µM (inactive)
GI50 (HT-29): > 100 µM (inactive)
GI50 (Hs-578T): 75 µM (inactive)
GI50 (IGROV-1): 51.9 µM (inactive)
GI50 (K562): > 100 µM (inactive)
GI50 (KM12): 56.5 µM (inactive)
GI50 (LOX IMVI): 54 µM (inactive)
GI50 (M14): > 100 µM (inactive)
GI50 (MDA-MB-231): > 100 µM (inactive)
GI50 (MDA-MB-435): > 100 µM (inactive)
GI50 (MDA-N): > 100 µM (inactive)
GI50 (MOLT-4): 66.4 µM (inactive)
GI50 (Malme-3M): 14 µM (inactive)
GI50 (NCI-H226): > 100 µM (inactive)
GI50 (NCI-H23): > 100 µM (inactive)
GI50 (NCI-H460): 95.9 µM (inactive)
GI50 (NCI/ADR-RES): > 100 µM (inactive)
GI50 (OVCAR-3): > 100 µM (inactive)
GI50 (OVCAR-4): > 100 µM (inactive)
GI50 (OVCAR-5): > 100 µM (inactive)
GI50 (OVCAR-8): > 100 µM (inactive)
GI50 (RPMI-8226): > 100 µM (inactive)
GI50 (RXF 393): > 100 µM (inactive)
GI50 (SF-268): > 100 µM (inactive)
GI50 (SF-539): 65.6 µM (inactive)
GI50 (SK-MEL-28): > 100 µM (inactive)
GI50 (SK-MEL-2): 29.4 µM (inactive)
GI50 (SK-MEL-5): > 100 µM (inactive)
GI50 (SK-OV-3): > 100 µM (inactive)
GI50 (SN12C): > 100 µM (inactive)
GI50 (SNB-19): > 100 µM (inactive)
GI50 (SNB-75): > 100 µM (inactive)
GI50 (SR): 86.7 µM (inactive)
GI50 (SW-620): > 100 µM (inactive)
GI50 (T47D): 43.7 µM (inactive)
GI50 (U-251): > 100 µM (inactive)
GI50 (UACC-257): > 100 µM (inactive)
GI50 (UACC-62): 58.6 µM (inactive)

N/C(=N\c1ccc(Cl)cc1)NS(=O)(=O)c1ccc(S(=O)(=O)c2ccccc2)s1
GI50 (786-0): 19.9 µM (inactive)
GI50 (A498): 17.4 µM (inactive)
GI50 (A549): 23.9 µM (inactive)
GI50 (ACHN): 20.9 µM (inactive)
GI50 (BT-549): 17.6 µM (inactive)
GI50 (COLO 205): 18.4 µM (inactive)
GI50 (DU-145): 21.5 µM (inactive)
GI50 (EKVX): 12.9 µM (inactive)
GI50 (HCT-116): 15.4 µM (inactive)
GI50 (HCT-15): 17.5 µM
GI50 (HL-60): 22.3 µM (inactive)
GI50 (HOP-62): 18.1 µM (inactive)
GI50 (HOP-92): 19.7 µM (inactive)
GI50 (HT-29): 21.7 µM (inactive)
GI50 (Hs-578T): 24 µM (inactive)
GI50 (IGROV-1): 13.8 µM (inactive)
GI50 (K562): 18.8 µM (inactive)
GI50 (KM12): 22.8 µM (inactive)
GI50 (LOX IMVI): 16.3 µM (inactive)
GI50 (M14): 17.9 µM (inactive)
GI50 (MCF7): 17.2 µM (inactive)
GI50 (MDA-MB-231): 12.9 µM (inactive)
GI50 (MDA-N): 18.5 µM (inactive)
GI50 (MOLT-4): 18 µM (inactive)
GI50 (Malme-3M): 20 µM (inactive)
GI50 (NCI-H226): 26.4 µM (inactive)
GI50 (NCI-H23): 17.7 µM (inactive)
GI50 (NCI-H460): 17.3 µM (inactive)
GI50 (NCI-H522): 14.5 µM (inactive)
GI50 (NCI/ADR-RES): 18 µM (inactive)
GI50 (OVCAR-3): 25.4 µM (inactive)
GI50 (OVCAR-4): 17.5 µM (inactive)
GI50 (OVCAR-5): 31.9 µM (inactive)
GI50 (OVCAR-8): 20 µM (inactive)
GI50 (PC-3): 14.2 µM (inactive)
GI50 (RPMI-8226): 16.6 µM (inactive)
GI50 (RXF 393): 53.8 µM (inactive)
GI50 (SF-268): 19.4 µM (inactive)
GI50 (SF-295): 15.1 µM (inactive)
GI50 (SF-539): 22.7 µM (inactive)
GI50 (SK-MEL-28): 19.7 µM (inactive)
GI50 (SK-MEL-2): 14.1 µM (inactive)
GI50 (SK-MEL-5): 15.8 µM (inactive)
GI50 (SK-OV-3): 38.7 µM (inactive)
GI50 (SN12C): 17.5 µM (inactive)
GI50 (SNB-19): 33.8 µM (inactive)
GI50 (SNB-75): 35.7 µM (inactive)
GI50 (SR): 24.8 µM (inactive)
GI50 (SW-620): 19 µM (inactive)
GI50 (T47D): 17 µM (inactive)
GI50 (TK-10): 21.2 µM (inactive)
GI50 (U-251): 14.4 µM (inactive)
GI50 (UACC-257): 14.8 µM (inactive)
GI50 (UACC-62): 11.3 µM (inactive)
GI50 (UO-31): 16.6 µM (inactive)

COCCN(C(=O)c1ccccc1)C1CCC(=O)c2[nH]c3ccccc3c21 (stereo unspecified)
GI50 (786-0): 3.4 µM (inactive)
GI50 (A498): 19.1 µM (inactive)
GI50 (A549): 15.6 µM (inactive)
GI50 (ACHN): 16.7 µM (inactive)
GI50 (BT-549): 2.7 µM (inactive)
GI50 (CAKI-1): 4.58 µM (inactive)
GI50 (CCRF-CEM): 3.64 µM (inactive)
GI50 (COLO 205): 15.5 µM (inactive)
GI50 (DU-145): 14.7 µM (inactive)
GI50 (EKVX): 10.7 µM (inactive)
GI50 (HCC 2998): 17.1 µM (inactive)
GI50 (HCT-116): 13.1 µM (inactive)
GI50 (HCT-15): 16.4 µM
GI50 (HL-60): 8.87 µM (inactive)
GI50 (HOP-62): 5.22 µM (inactive)
GI50 (HOP-92): 12.1 µM (inactive)
GI50 (HT-29): 9.98 µM (inactive)
GI50 (Hs-578T): 15.5 µM (inactive)
GI50 (IGROV-1): 3.65 µM (inactive)
GI50 (K562): 3.85 µM (inactive)
GI50 (KM12): 8.41 µM (inactive)
GI50 (LOX IMVI): > 21.1 µM (inactive)
GI50 (M14): 7.11 µM (inactive)
GI50 (MCF7): 6.27 µM (inactive)
GI50 (MDA-MB-231): 4.23 µM (inactive)
GI50 (MDA-MB-435): 6.87 µM (inactive)
GI50 (MOLT-4): 6.64 µM (inactive)
GI50 (Malme-3M): 7.21 µM (inactive)
GI50 (NCI-H226): 6.28 µM (inactive)
GI50 (NCI-H23): 17.7 µM (inactive)
GI50 (NCI-H460): 12.8 µM (inactive)
GI50 (NCI-H522): 2.59 µM (inactive)
GI50 (NCI/ADR-RES): 19.3 µM (inactive)
GI50 (OVCAR-3): 12.5 µM (inactive)
GI50 (OVCAR-4): 6.81 µM (inactive)
GI50 (OVCAR-5): 16.9 µM (inactive)
GI50 (OVCAR-8): 6.85 µM (inactive)
GI50 (PC-3): 5.25 µM (inactive)
GI50 (RPMI-8226): 17.7 µM (inactive)
GI50 (RXF 393): 5.83 µM (inactive)
GI50 (SF-268): 9.12 µM (inactive)
GI50 (SF-295): > 41 µM (inactive)
GI50 (SF-539): 7.1 µM (inactive)
GI50 (SK-MEL-28): 6.07 µM (inactive)
GI50 (SK-MEL-2): 5.38 µM (inactive)
GI50 (SK-MEL-5): 7.14 µM (inactive)
GI50 (SK-OV-3): 15.5 µM (inactive)
GI50 (SN12C): 7.85 µM (inactive)
GI50 (SNB-19): 11.2 µM (inactive)
GI50 (SNB-75): 5.62 µM (inactive)
GI50 (SR): 3.2 µM (inactive)
GI50 (SW-620): 8.28 µM (inactive)
GI50 (T47D): 16.2 µM (inactive)
GI50 (TK-10): 20.3 µM (inactive)
GI50 (U-251): 2.08 µM (inactive)
GI50 (UACC-257): > 46.9 µM (inactive)
GI50 (UACC-62): 17.8 µM (inactive)
GI50 (UO-31): 9.71 µM (inactive)
